Patent EP0022478B1, “Polyhydro-3,7-dimethyl-8-(2-(tetrahydro-4-hydroxy-6-oxo-2H-pyran-2-yl)-ethyl)-1-naphthylenyl-2-methylbutanoates, corresponding hydroxy acids, process for preparing and pharmaceutical compositions containing the same” (Merck & Co., Inc., priority 1979, dated 1981)
Structures can show the parent of a compound that is named as a salt. Where two headings read alike, the source gives them in different places. One block for each molecule: values may come before it.

Tests used:
cholesterol synthesis = experiment: In vivo inhibition of cholesterol synthesis (14C acetate into 14C cholesterol); design: species or system male Holtzman rats; details: 14C acetate IP after one hour, bled 50 minutes later
Experimental: Groups of male Holtzman rats were dosed with either 5% emulphor in saline or test compound in emulphor by stomach tube. After one hour 80 µCi of ^14C acetate/kg was given IP. The rats were bled 50 minutes later and ^14C cholesterol was determined as a measure of sterol synthesis: […]

mouse L―M cells = molecular target: T1, mouse L―M cells (Mus musculus, UniProt Q01237); experiment: Inhibition of sterol synthesis in cell culture (14C sterol from 14C acetic acid); type: cell-based
T1 sequence (Q01237 1-887): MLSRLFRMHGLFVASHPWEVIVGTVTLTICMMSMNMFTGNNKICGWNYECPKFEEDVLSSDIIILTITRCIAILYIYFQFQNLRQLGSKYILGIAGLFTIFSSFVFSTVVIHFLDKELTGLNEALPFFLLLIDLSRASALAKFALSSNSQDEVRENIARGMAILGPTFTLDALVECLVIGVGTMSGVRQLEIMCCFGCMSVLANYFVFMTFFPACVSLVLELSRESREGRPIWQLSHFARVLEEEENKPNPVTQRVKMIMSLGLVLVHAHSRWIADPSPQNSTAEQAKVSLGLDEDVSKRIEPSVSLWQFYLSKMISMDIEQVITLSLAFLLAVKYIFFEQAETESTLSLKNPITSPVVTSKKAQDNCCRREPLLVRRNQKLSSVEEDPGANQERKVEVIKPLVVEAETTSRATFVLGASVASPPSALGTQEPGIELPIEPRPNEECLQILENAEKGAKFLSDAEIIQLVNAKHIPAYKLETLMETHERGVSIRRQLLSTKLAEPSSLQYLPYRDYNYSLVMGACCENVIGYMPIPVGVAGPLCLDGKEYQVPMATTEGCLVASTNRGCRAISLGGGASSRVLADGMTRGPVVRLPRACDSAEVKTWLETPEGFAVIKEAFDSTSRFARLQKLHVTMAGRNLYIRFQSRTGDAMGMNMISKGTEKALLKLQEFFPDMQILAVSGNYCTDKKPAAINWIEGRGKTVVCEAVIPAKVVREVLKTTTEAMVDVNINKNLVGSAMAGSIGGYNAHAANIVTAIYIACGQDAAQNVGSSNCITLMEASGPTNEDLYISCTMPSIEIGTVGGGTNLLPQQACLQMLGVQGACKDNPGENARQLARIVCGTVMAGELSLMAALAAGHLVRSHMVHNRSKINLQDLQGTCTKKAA
Experimental: The procedure of A. W. Alberts et al., J. Biol. Chem. 249: 5241 (1974) measuring the quantity of ^14C sterol biosynthesis frofdm ^14C acetic acid in mouse L―M cells in culture was employed with modification. The test compound in 10 µl DMSO was added to the monolayer cultures with 5 µCi of ^14C acetate. After a 3 hour incubation, the cells were saponified and the ^14C sterol extracted and isolated by thin layer chromatography on silica gel using petroleum ether-diethyl ether-acetic acid (75:25:1). The region on the plate containing ^14C sterol was identified by staining with 12 and the ^14C content determined by liquid scintillation counting.

[1] = Stability of the hydroxy acid on standing
HMG-CoA Reductase = molecular target: T2, HMG-CoA Reductase (Rattus norvegicus, UniProt P51639); experiment: In vitro inhibition of HMG Coenzyme A reductase, Beg method modified by 5 min preincubation of enzyme with inhibitor; type: biochemical; details: modified procedure; read-out: IC50 in inhibiting HMG-CoA Reductase
T2 sequence (P51639 1-887): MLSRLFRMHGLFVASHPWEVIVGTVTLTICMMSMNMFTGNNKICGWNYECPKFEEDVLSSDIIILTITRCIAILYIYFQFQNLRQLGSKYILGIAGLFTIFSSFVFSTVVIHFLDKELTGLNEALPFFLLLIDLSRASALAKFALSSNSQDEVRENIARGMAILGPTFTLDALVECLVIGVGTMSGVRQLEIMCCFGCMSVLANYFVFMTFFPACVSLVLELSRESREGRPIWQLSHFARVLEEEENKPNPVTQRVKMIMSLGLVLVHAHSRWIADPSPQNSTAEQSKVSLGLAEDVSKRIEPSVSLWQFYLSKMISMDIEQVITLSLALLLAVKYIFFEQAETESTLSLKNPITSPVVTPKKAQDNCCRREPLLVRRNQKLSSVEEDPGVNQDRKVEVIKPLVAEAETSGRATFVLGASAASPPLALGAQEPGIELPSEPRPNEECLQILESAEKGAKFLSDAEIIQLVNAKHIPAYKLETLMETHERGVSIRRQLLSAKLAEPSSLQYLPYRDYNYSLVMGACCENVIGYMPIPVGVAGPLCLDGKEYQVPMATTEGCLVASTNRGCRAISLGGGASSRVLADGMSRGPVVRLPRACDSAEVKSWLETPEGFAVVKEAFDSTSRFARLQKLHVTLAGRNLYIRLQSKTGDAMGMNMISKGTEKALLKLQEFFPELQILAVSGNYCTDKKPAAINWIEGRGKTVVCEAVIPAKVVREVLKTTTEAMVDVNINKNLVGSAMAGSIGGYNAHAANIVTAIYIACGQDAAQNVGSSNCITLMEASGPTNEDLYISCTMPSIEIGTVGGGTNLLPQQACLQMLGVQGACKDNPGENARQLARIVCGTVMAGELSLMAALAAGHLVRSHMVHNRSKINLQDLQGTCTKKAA
Experimental: The method of Beg et al., FEBS Letters, 80 123 (1977) was modified slightly by incubating the enzyme with the inhibitor for five minutes before initiating the reaction with the substrate.

[2] = mouse L-M cell monolayers, 3 hour incubation with 14C acetate; read-out: IC50 in inhibiting HMG-CoA reductase

SMILES: CCC(C)C(=O)O[C@H]1C[C@@H](C)C=C2C=C[C@H](C)[C@H](CC[C@@H]3C[C@@H](O)CC(=O)O3)[C@H]21 (stereo partly drawn) [Compound I]
IC50 (mouse L―M cells; read-out: IC50 in inhibiting HMG-CoA reductase; mouse L-M cell monolayers, 3 hour incubation with 14C acetate): 22 nM

SMILES: CC[C@H](C)C(=O)O[C@H]1CCC=C2C=C[C@H](C)[C@H](CC[C@@H]3C[C@@H](O)CC(=O)O3)[C@H]21 [ML236B, compactin, reference compound]
IC50 (mouse L―M cells; [2]): 46 nM
IC50 (HMG-CoA Reductase): 5.4 nM

Now from value to molecule, other results behind:

IC50 (mouse L―M cells; [2]): 17 nM
SMILES: CCC(C)C(=O)O[C@H]1C[C@@H](C)C[C@@H]2C=C[C@H](C)[C@H](CC[C@@H]3C[C@@H](O)CC(=O)O3)[C@@H]12 (stereo partly drawn) [Compound II]
% Inhibition (cholesterol synthesis; dose 0.15 mg/kg by stomach tube): 38%
% Inhibition (cholesterol synthesis; dose 0.6 mg/kg by stomach tube): 51%
% Inhibition (cholesterol synthesis; dose 1.2 mg/kg by stomach tube): 70%

stability of hydroxy acid on standing [1]: slowly reverts to the lactone
SMILES: CCC(C)C(=O)OC1CC(C)CC2C=CC(C)C(CCC(O)CC(O)CC(=O)O)C21 (stereo not drawn) [Compound IV]

IC50 (HMG-CoA Reductase): 2.7 nM
SMILES: CCC(C)C(=O)O[C@H]1C[C@@H](C)C[C@@H]2C=C[C@H](C)[C@H](CC[C@@H](O)C[C@@H](O)CC(=O)O)[C@@H]12 (stereo partly drawn) [sodium salt of Compound IV]
